Measurements: PubChem BioAssay (NCI)
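Here, GI50 denotes the concentration required for 50% inhibition of growth. TGI: concentration producing complete growth inhibition.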

Legend:
Test in all cases: NCI-60 cell line screen, 384-well format
[1] = test system: SF-295 CNS
[2] = test system: NCI-H522 lung
[3] = test system: MDA-MB-435 melanoma
[4] = test system: SK-OV-3 ovarian
[5] = test system: T-47D breast
[6] = test system: COLO 205 colon
[7] = test system: IGROV1 ovarian
[8] = test system: NCI/ADR-RES ovarian
[9] = test system: NCI-H226 lung
[10] = test system: SK-MEL-28 melanoma
[11] = test system: TK-10 renal
[12] = test system: UO-31 renal
[13] = test system: DU-145 prostate

SMILES: COCCOc1cc(F)c2c(Nc3ccc(NC(=O)Cn4cc(C(C)C)nn4)cc3)ncnc2c1
- GI50 [1]: > 100 µM
- TGI [1]: > 100 µM
- GI50 [2]: 18.1 µM
- TGI [2]: 92.3 µM
- GI50 [3]: 62.1 µM
- TGI [3]: > 100 µM
- GI50 [4]: 86.1 µM
- TGI [4]: > 100 µM
- GI50 [5]: 5.9 µM
- TGI [5]: > 100 µM
- GI50 [6]: 40.8 µM
- TGI [6]: > 100 µM
- GI50 [7]: 53.5 µM
- TGI [7]: > 100 µM
- GI50 [8]: > 100 µM
- TGI [8]: > 100 µM
- GI50 [9]: 7.16 µM
- TGI [9]: > 100 µM
- GI50 [10]: > 100 µM
- TGI [10]: > 100 µM
- GI50 [11]: 29.8 µM
- TGI [11]: > 100 µM
- GI50 [12]: 72 µM
- TGI [12]: > 100 µM
- GI50 [13]: 75 µM
- TGI [13]: > 100 µM
